Reference: patent US20090048216A1, “INTRAVENOUS AND ORAL DOSING OF A DIRECT-ACTING AND REVERSIBLE P2Y12 INHIBITOR” (Portola Pharmaceuticals, Inc., priority 2007, published 2009)
“Also recorded” adds a separate entry of the source.

Legend:
[1] = one week, 40° C., 75% RH
[2] = test system: collagen induced platelet aggregation; test: Ex vivo collagen-induced platelet aggregation after oral dosing, with or without aspirin; type: in vivo, human; settings: aspirin alone, predosed for three days at 325 mg/day
Description: In a further aspect of the study, the effect of aspirin and the compound together on the inhibition of collagen-induced platelet aggregation was investigated.

[3] = test system: ADP-induced human platelet aggregation; test: Inhibition of ADP-mediated platelet aggregation in vitro (PRP assay); type: cell-based; settings: human platelet-rich plasma
Experimental: For preparation of human platelet-rich plasma for aggregation assays, human venous blood was collected from healthy, drug-free volunteers into 0.38% sodium citrate (0.013 M, pH 7.0 final). […] This preparation of PRP can subsequently be used for aggregation assays in either a 96-well plate or standard cuvette aggregometry.
For cuvette light transmittance aggregation assays, serial dilutions (1:3) of test compounds were prepared in 100% DMSO in a 96 well V-bottom plate (final DMSO concentration in the cuvette was 0.6%). […] The aggregation reaction is recorded for ˜5 min, and maximum extent of aggregation is determined by the difference in extent of aggregation at baseline, compared to the maximum aggregation that occurs during the five minute period of the assay. Inhibition of aggregation was calculated as the maximum aggregation observed in the presence of inhibitor, compared to that in the absence of inhibitor. […]
Inhibition of ADP-dependent aggregation was also determined in 96-well flat-bottom microtiter plates using a microtiter plate shaker and plate reader similar to the procedure described by Frantantoni et al., Am. […] The OD of the samples is then determined at 450 nm using a microtiter plate reader (Softmax, Molecular Devices, Menlo Park, Calif.) resulting in the 0 minute reading. […]

P2Y12 receptor = molecular target: T1, P2Y12 receptor (Homo sapiens, UniProt Q9H244); test: platelet ADP receptor binding assay (ARB): inhibition of [3H]2-MeS-ADP binding to platelets; settings: whole platelets
T1 construct: endogenous in cells; host or cells: apyrase-washed human platelets (outdated from hospital blood banks, or fresh)
Experimental: 1. The Ability of Candidate Molecules to Inhibit the Binding of [3H]2-MeS-ADP to the P2Y12 Receptor on Platelets was Determined Using a Radioligand Binding Assay.
Utilizing this assay the potency of inhibition of such compounds with respect to [^3H]2-MeS-ADP binding to whole platelets is determined. Under the conditions described in II (3) below, the binding of [^3H]2-MeS-ADP is solely due to the interaction of this ligand with the P2Y12 receptor, in that all the specific binding measured in this assay is compatable with a P2Y12 antagonist (i.e., the specific binding is reduced to background levels by competition with an excess of P2Y12 antagonist, with no competition of binding when a P2Y1 antagonist is pre-incubated with the platelet preparation). […]
A platelet ADP receptor binding assay (ARB) using the tritiated potent agonist ligand [3H]2-MeS-ADP (Jantzen, H. M. et al. (1999) Thromb. Hemost. 81:111-117) has been adapted to the 96-well microtiter format. […] Total binding is determined in the absence of test compounds. […] The platelet-bound radioactivity on the filtermats is determined in a scintillation counter (Microbeta 1450, Wallac Inc., Gaithersburg, Md.). Specific binding is determined by subtraction of non-specific binding from total binding, and specific binding in the presence of test compounds is expressed as % of specific binding in the absence of test compound dilutions. […]

[4] = Accelerated stability of solid forms
[5] = Pharmacokinetics of single IV doses in human subjects; type: in vivo; settings: IV 1-40 mg
[6] = Tolerability and safety of single oral doses in human subjects; settings: oral doses 10-800 mg
Experimental: A single center, double-blind, placebo-controlled study of a compound of Formula I was conducted in human subjects. The compound of Formula I was the potassium salt (Polymorph B) dissolved in water.

[7] = Bleeding time (Surgicutt device) after IV infusion; type: in vivo, human
Experimental: Bleeding time was measured using the Surgicutt device at 25 min (Cmax) and 8 hrs post dose. […] However, this effect was reversed by 8 hrs post dosing.

[8] = Pharmacokinetics of single oral liquid doses in human subjects; type: in vivo
[9] = test system: ADP-induced platelet aggregation; test: animal or person; settings: Homo sapiens, iv, 0.1 h, read-out: IC50 for inhibition of ADP-induced late (6 min) platelet aggregation vs plasma concentration (Emax model)
Experimental: (§1) Human venous blood was collected in a plastic syringe and immediately transferred to a plastic tube containing a fixed amount of anticoagulant (e.g., 5 μM (final) of a proprietary Portola anticoagulant C921-78 (a factor Xa inhibitor (see, Betz A, Wong P W, Sinha U. Inhibition of factor Xa by a peptidyl-alpha-ketothiazole involves 2 steps: evidence for a stabilizing conformational change. Biochemistry. 1999; 38: 14582-14591)) and mixed gently by inversion. Platelet-rich plasma (PRP) was prepared by centrifugation of whole blood at 160×g for 20 minutes at room temperature. The PRP layer was removed, transferred to a new tube, and the platelet count was adjusted, if necessary, to achieve a platelet concentration of ˜3×10^8 platelets/ml using platelet-poor plasma (PPP). PPP is prepared by centrifugation of the remaining blood sample (after removal of PRP) for 20 minutes at 800×g. This preparation of PRP was used for standard light transmittance aggregometry assays. […] While stirring the PRP, a sufficient volume of adenosine diphosphate (ADP, Sigma-Aldrich) was added to achieve a final concentration of 10 μM in the cuvette, and the change in light transmittance was recorded for 6 minutes. The maximum extent of aggregation as well as the final (6 min after initiation of the aggregation reaction) extent of aggregation was determined from each reaction.

[10] = test system: ADP induced platelet aggregation
Experimental: (§2) Human venous blood was collected in a plastic syringe and immediately transferred to a plastic tube containing a fixed amount of anticoagulant (e.g., 5 μM (final) of a proprietary Portola anticoagulant C921-78 (a factor Xa inhibitor (see, Betz A, Wong P W, Sinha U. Inhibition of factor Xa by a peptidyl-alpha-ketothiazole involves 2 steps: evidence for a stabilizing conformational change. Biochemistry. 1999; 38: 14582-14591)) and mixed gently by inversion. Platelet-rich plasma (PRP) was prepared by centrifugation of whole blood at 160×g for 20 minutes at room temperature. The PRP layer was removed, transferred to a new tube, and the platelet count was adjusted, if necessary, to achieve a platelet concentration of ˜3×10^8 platelets/ml using platelet-poor plasma (PPP). PPP is prepared by centrifugation of the remaining blood sample (after removal of PRP) for 20 minutes at 800×g. This preparation of PRP was used for standard light transmittance aggregometry assays. A fixed volume of PRP (0.3-0.5 mls) was transferred to an aggregometry cuvette, and the same volume of PPP was used to blank the machine. While stirring the PRP, a sufficient volume of adenosine diphosphate (ADP, Sigma-Aldrich) was added to achieve a final concentration of 10 μM in the cuvette, and the change in light transmittance was recorded for 6 minutes. The maximum extent of aggregation as well as the final (6 min after initiation of the aggregation reaction) extent of aggregation was determined from each reaction.
(§3) The compound of Formula I was the potassium salt (Polymorph B) dissolved in water.

[11] = test system: ADP induced platelet aggregation; test: animal or person; settings: Homo sapiens, po, 0.1 h, read-out: IC50 of inhibition of ADP-induced platelet aggregation vs plasma concentration (PK-PD), oral study, aggregation at 6 minutes, ex vivo
Experimental: as §2, §3

[12] = Tolerability and safety of single intravenous doses in human subjects; type: in vivo
Description: To determine the tolerability, the pharmacokinetic (PK) and pharmacodynamic (PD) effects of single ascending IV doses of a compound of Formula I (the potassium salt of polymorph B, or PRT128) in healthy subjects, ages 18-50.

[13] = test system: ADP-induced platelet aggregation; settings: IV, at the higher dosages
Experimental: as §1

[14] = test system: collagen-induced platelet thrombosis; test: Real Time Thrombosis Profiler (RTTP) ex vivo after oral dosing; type: in vivo, human; settings: 6 hours post dosing
Experimental: Rhodamine 6G (1.25 μg/ml final concentration) was added to the blood, mixed by gentle inversion, and the tube was incubated at ˜37° C. for 20 min. Subsequently, the rhodamine-labeled blood was perfused through a rectangular glass capillary coated with type III collagen at an arterial shear rate (˜1600 sec^−1) and the extent of thrombus formation on the collagen surface was monitored for 5-7 min by the accumulation of fluorescently-labeled platelets using a video camera. The extent of the overall thrombotic process (e.g., accumulation of fluorescently-labeled platelets over time) was determined by analysis of various parameters derived from the curve generated from mean fluorescence intensity vs time (sec). These parameters may include slope, area under the curve, and endpoint.
In yet another part of the study, the effects of the oral treatments in the human subjects was investigated using a Real Time Thrombosis Profiler (RTTP) as the ex vivo assay method. The set up and principles of operation of the RTTP are depicted in FIGS. 26A, B, and C. There was a dose-dependent decrease in the RTTP collagen-induced platelet thrombosis for the subjects given the compound. A dose of 100 mg of the compound produced about a 70% inhibition. A dose of 30 mg of the compound produced a 53 percent inhibition.

T1 sequence (Q9H244 whole entry): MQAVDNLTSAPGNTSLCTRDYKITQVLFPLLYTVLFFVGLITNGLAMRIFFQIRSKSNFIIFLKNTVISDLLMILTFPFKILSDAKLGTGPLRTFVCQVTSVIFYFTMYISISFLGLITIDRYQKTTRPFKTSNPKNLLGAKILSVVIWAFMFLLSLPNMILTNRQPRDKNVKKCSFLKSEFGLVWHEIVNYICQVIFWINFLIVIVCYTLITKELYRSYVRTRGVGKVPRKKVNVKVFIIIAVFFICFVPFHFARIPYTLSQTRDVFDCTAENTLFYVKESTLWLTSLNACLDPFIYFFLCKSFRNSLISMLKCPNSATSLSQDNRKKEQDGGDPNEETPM

Q: Which “change in chemical purity in accelerated stability test” value [1] does the source give for `CNc1cc2[nH]c(=O)n(-c3ccc(NC(=O)[N-]S(=O)(=O)c4ccc(Cl)s4)cc3)c(=O)c2cc1F.[Na+]` [amorphous form of the sodium salt] here?
A: No change

Q: Which “reduction in collagen induced platelet aggregation assay” value [2] does the source give for ortho-acetylsalicylic acid [aspirin] here?
A: ~40%

Q: For `CNc1cc2[nH]c(=O)n(-c3ccc(NC(=O)NS(=O)(=O)c4ccc(Cl)s4)cc3)c(=O)c2cc1F` [Example 2], which IC50 [3] is on record?
A: < 10 µM

Q: And the IC50 (P2Y12 receptor)?
A: < 0.05 µM

Q: With `CNc1cc2[nH]c(=O)n(-c3ccc(NC(=O)[N-]S(=O)(=O)c4ccc(Cl)s4)cc3)c(=O)c2cc1F.[K+]` [Form A] as the compound, how does the “stability of solid form” value [4] read?
A: stable

Q: And the “change in chemical purity in accelerated stability test” value [1]?
A: No change

Q: For `CNc1cc2[nH]c(=O)n(-c3ccc(NC(=O)[N-]S(=O)(=O)c4ccc(Cl)s4)cc3)c(=O)c2cc1F.[K+]` [PRT128], which “drug exposure with dose” value [5] is on record?
A: dose proportional

Q: And the serious adverse events [6]?
A: no serious adverse events

Q: What about the tolerability [6] of the same compound?
A: well tolerated

Q: What about the “dose at which pre-defined bleeding time stopping criteria (>20 min and 3 fold prolongation from baseline) were reached” value [7] of the same compound?
A: 40 mg

Q: What about the bleeding time ([7]; 25 min (Cmax)) of the same compound?
A: prolonged dose-dependently

Q: And the “bleeding time effect at 8 hrs” value ([7]; 8 hrs post dose, potassium salt)?
A: reversed; also recorded: returned to baseline

Q: What about the “bleeding time at potential clinically therapeutic anti-thrombotic level of 40%” value ([7]; listed as studied compound, potassium salt) of the same compound?
A: without substantially affecting bleeding time

Q: And the “bleeding time at potential clinically therapeutic anti-thrombotic level of 40%” value ([7]; potassium salt)?
A: did not increase bleeding time

Q: What about the “plasma PK increases with dose” value ([8]; oral, 10-100 mg) of the same compound?
A: dose proportional

Q: What about the half-life ([8]; plasma, single oral liquid dose, read-out: terminal half-life (converted)) of the same compound?
A: ~12 h

Q: What about the IC50 [9] of the same compound?
A: 0.601 µg/mL

Q: What about the “inhibition of ADP-induced platelet aggregation” value ([10]; oral 100 mg, four hours post dose) of the same compound?
A: 60%

Q: And the “IC50 of inhibition of ADP-induced platelet aggregation vs plasma concentration (PK-PD)” value ([10]; oral study, aggregation at 6 minutes, ex vivo, listed as potassium salt, potassium salt)?
A: ≈ 450 ng/ml

Q: What about the “maximum inhibition of ADP-induced platelet aggregation measured at six minutes” value ([10]; oral, at the higher dosages) of the same compound?
A: 100%

Q: What about the “dose achieving maximum effect (maximum amplitude aggregation)” value ([10]; oral, four hour time point) of the same compound?
A: about 200 mg

Q: And the IC50 [11]?
A: ~0.451 µg/mL

Q: And the ECG ([12]; IV 1-40 mg)?
A: No significant changes

Q: What about the serious adverse events ([12]; IV 1-40 mg) of the same compound?
A: No serious adverse events

Q: And the “standard clinical chemistry, hematology and coagulation labs” value ([12]; IV 1-40 mg)?
A: no clinically significant changes or trends

Q: And the vital signs ([12]; IV 1-40 mg)?
A: No significant changes or trends

Q: And the tolerability ([12]; IV 1-40 mg over 20 minutes, human)?
A: well tolerated

Q: And the tolerability ([12]; IV bolus up to 45 mg)?
A: equally well tolerated

Q: What about the “maximum inhibition of ADP-induced platelet aggregation measured at six minutes” value [13] of the same compound?
A: 100%

Q: And the “inhibition of RTTP collagen-induced platelet thrombosis” value ([14]; oral 30 mg)?
A: 53%

Q: What about the “inhibition of RTTP collagen-induced platelet thrombosis” value ([14]; oral 100 mg) of the same compound?
A: ~70%
